Test results reported in patent publication US20250100993A1, “2-SUBSTITUTED THIAZOLE HSD17B13 INHIBITORS AND USES THEREOF” (Inipharm, Inc., priority 2022, published 2025).

Tests used:
Type in all cases: biochemical
[1] = molecular target: HSD17B13 (Homo sapiens (Human), UniProt Q7Z5P4); experiment: LC/MS estrone detection assay for HSD17B13 activity (estradiol to estrone); settings: estradiol substrate, LCMS; read-out: HSD17B13 Inhibition_Estradiol Substrate_LCMS: Ki
In short: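 His-tagged E. coli-expressed enzyme (30 nM) with 4 μM estradiol and 6 mM NAD+ in potassium phosphate pH 7.4, 0.5% DMSO, 2 h at 26.5° C. Estrone formation quantified by LC-MS/MS against D4-estrone standard; activity as % of uninhibited, four-parameter fit, duplicates.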

[2] = molecular target: HSD17B14 (Homo sapiens (Human), UniProt Q9BPX1); experiment: LC/MS estrone detection assay for HSD17B14 activity (estradiol to estrone); settings: selectivity for HSD17B13 over HSD17B14
Description: The liquid chromatography/mass spectrometry (LC/MS) estrone detection assay monitors the conversion of estradiol to estrone by HSD17B14. This assay was undertaken in a 96 well plates (Eppendorf deep well), in an 80 μl reaction volume containing: 8 μM of estradiol (E2; Cayman); 4 mM NAD+(Sigma); 120 nM HSD17B14 enzyme (in-house E. coli expressed His-tagged, purified, soluble protein); 1M potassium phosphate buffer pH 7.4, and 1.2% vehicle (DMSO). Reactions were incubated for 2 hours at 37° C. Estradiol (E2) conversion to estrone (E1) was quantitated by LC-MS/MS based analyte detection for E1 using LCMS grade reagents.
Reactions were terminated by the addition of two volumes of acetonitrile (MeCN; LCMS grade) containing deuterated (D4)-E1 used as internal standard (Clear Synth; 500 ng/mL final concentration). Samples were applied to pre-prepared Bond Elut-C18 extraction cartridges (3 mL; Agilent). The cartridges were washed with 1.5 mL water followed by 1.5 mL 5% aqueous methanol, and dried for 5 minutes under vacuum. They were then eluted with 4.5 mL MeCN. The eluates were dried under nitrogen and re-suspended in 200 μL of 60% methanol (LCMS grade) before submission for analysis. Standard curves of E2 and E1 in 4% DMSO were included for quantification.
Analysis of samples was performed on a XBridge BEH C18 column (Waters) using 0.1% Diethyl Amine in MeCN (mobile phase A) and 0.1% Diethyl Amine in milli-Q water (mobile phase B) in a 3 min gradient from 0-25% B. Analytes were detected in negative mode using MRM analysis, with E2 having a RT of 1.89 min and E1 having a RT of 2.07 min. Activity of the enzyme in the absence of NAD+ was used to evaluate specificity of conversion. Enzyme activity in the presence of test samples was expressed as a percentage of the uninhibited enzyme in the presence of 1.2% DMSO vehicle only, and plotted versus inhibitor concentration. Non-linear regression was performed using a four-parameter logistic model and GraphPad Prism software. All assessments were undertaken in duplicate evaluations, which were pooled during the extraction process and subsequently injected as duplicates for LC-MS/MS analysis.

[3] = molecular target: HSD17B2 (Homo sapiens (Human), UniProt P37059); experiment: HSD17B2 activity via detection of NADH product (NAD-Glo luminescence); settings: selectivity for HSD17B13 over HSD17B2
Description: The fluorescence based detection assay monitors the conversion of the co-factor NAD^+ to NADH, which occurs coincident with the conversion of estradiol to estrone by HSD17B2. These assays were performed in 384 well plates (Greiner V-shape PP-microplate). The 20 μl reaction volume contained: 0.7 μM estradiol (E2); 6 mM NAD^+ (Sigma); 250 nM HSD17B2 enzyme (Origene; Cat #TP303293); 0.25 M potassium phosphate buffer pH 7.4, 0.75% vehicle (DMSO). Reactions were incubated for 2 hours at 37° C., and the reaction was stopped by freezing the reaction plates at −80° C. Zero time samples were frozen immediately.
The conversion of NAD^+ to NADH was quantitated using NAD-Glo kits (Promega; Cat #G9062) according to the manufacturers' instructions. A volume of 15 μL of enzyme reaction mixture was added to 15 μL of reconstituted Glo reagent, and the plates were incubated for 30 minutes at room temperature. Luminescence was quantitated on a Tecan Spark Reader®. A standard curve of NADH ([…]) in potassium phosphate buffer pH 7.4/1% DMSO was run on each plate.
Activity of the enzyme in the absence of E2 was used to evaluate specificity of conversion. Enzyme activity in the presence of test samples was expressed as a percentage of the uninhibited enzyme in the presence of 1% DMSO vehicle only, and was plotted versus inhibitor concentration. Non-linear regression was performed using a four-parameter logistic model and GraphPad Prism software. All assessments were undertaken in duplicate evaluations.

HSD17B2, sequence (P37059 whole entry): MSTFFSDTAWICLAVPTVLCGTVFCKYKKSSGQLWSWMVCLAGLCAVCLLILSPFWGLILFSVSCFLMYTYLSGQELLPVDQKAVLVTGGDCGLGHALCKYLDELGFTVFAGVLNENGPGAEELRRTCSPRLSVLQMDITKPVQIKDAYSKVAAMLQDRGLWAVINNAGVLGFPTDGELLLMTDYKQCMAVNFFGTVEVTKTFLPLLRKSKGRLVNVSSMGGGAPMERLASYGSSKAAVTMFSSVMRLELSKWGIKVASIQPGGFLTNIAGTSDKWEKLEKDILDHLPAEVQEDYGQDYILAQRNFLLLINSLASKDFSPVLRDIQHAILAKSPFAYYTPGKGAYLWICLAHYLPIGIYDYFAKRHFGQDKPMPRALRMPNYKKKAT
HSD17B14, sequence (Q9BPX1 whole entry): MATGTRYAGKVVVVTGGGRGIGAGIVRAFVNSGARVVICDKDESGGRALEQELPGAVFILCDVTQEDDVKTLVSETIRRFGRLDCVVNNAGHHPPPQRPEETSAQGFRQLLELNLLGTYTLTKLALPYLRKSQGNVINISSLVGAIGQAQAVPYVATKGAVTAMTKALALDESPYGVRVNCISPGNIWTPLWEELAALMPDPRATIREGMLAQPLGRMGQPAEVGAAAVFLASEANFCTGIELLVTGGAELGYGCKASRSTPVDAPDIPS
HSD17B13, sequence (Q7Z5P4 20-300): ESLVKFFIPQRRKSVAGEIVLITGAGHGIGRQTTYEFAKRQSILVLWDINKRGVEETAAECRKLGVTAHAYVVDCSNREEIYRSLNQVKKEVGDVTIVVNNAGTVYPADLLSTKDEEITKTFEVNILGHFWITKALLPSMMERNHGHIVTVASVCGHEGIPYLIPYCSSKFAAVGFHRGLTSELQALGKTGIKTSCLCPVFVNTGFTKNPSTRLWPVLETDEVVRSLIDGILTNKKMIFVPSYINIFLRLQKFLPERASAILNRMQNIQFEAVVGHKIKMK

Compound | Ki [1] [nM] | HSD17B14 fold selectivity [2] [fold] | HSD17B2 fold selectivity [3] [fold]
O=C(Nc1sc(C2CC2)nc1C(=O)NCc1ccccc1C(F)(F)F)c1cc(Cl)c(O)c(Cl)n1 [Example 59, 2-cyclopropyl-5-(4,6-dichloro-5-hydroxypicolinamido)-N-(2-(trifluoromethyl)benzyl)thiazole-4-carboxamide] | ≤ 50 | >331 | –
O=C(Nc1sc(-c2ccccc2F)nc1C(=O)NCc1ccccc1C(F)(F)F)c1cc(Cl)c(O)c(Cl)n1 [Example 60, 5-(4,6-dichloro-5-hydroxypicolinamido)-2-(2-fluorophenyl)-N-(2-(trifluoromethyl)benzyl) thiazole-4-carboxamide] | ≤ 50 | >980 | –
O=C(Nc1sc(-c2cccnc2)nc1C(=O)NCc1ccccc1C(F)(F)F)c1cc(Cl)c(O)c(Cl)c1 [Example 61] | ≤ 50 | >397 | 64
O=C(Nc1sc(-c2ccccc2)nc1C(=O)NCc1ccccc1C(F)(F)F)c1cc(Cl)c(O)c(Cl)c1 [Example 62] | ≤ 50 | – | 204
O=C(Nc1sc(-c2ccccc2F)nc1C(=O)NCc1ccccc1C(F)(F)F)c1cc(Cl)c(O)c(Cl)c1 [Example 63] | ≤ 50 | – | 192
O=C(Nc1sc(-c2ccccc2F)nc1C(=O)NCc1ccccc1C(F)(F)F)c1cc(F)c(O)c(Cl)c1 [Example 64] | ≤ 50 | >855 | 115
O=C(Nc1sc(-c2ccccc2Cl)nc1C(=O)NCc1ccccc1C(F)(F)F)c1cc(Cl)c(O)c(Cl)c1 [Example 65] | ≤ 50 | – | 225
Cn1cc(-c2nc(C(=O)NCc3ccccc3C(F)(F)F)c(NC(=O)c3cc(Cl)c(O)c(Cl)n3)s2)cn1 [Example 66] | 50 to 100 | – | 36
O=C(Nc1sc(-c2ccccc2Cl)nc1C(=O)NCc1ccccc1C(F)(F)F)c1cc(Cl)c(O)c(Cl)n1 [Example 67] | ≤ 50 | – | 513
O=C(Nc1sc(-c2cncnc2)nc1C(=O)NCc1ccccc1C(F)(F)F)c1cc(Cl)c(O)c(Cl)n1 [Example 68] | 50 to 100 | – | 48
O=C(Nc1sc(-c2ccncc2)nc1C(=O)NCc1ccccc1C(F)(F)F)c1cc(Cl)c(O)c(Cl)n1 [Example 70] | ≤ 50 | – | 107
CS(=O)(=O)c1ccc(-c2nc(C(=O)NCc3ccccc3C(F)(F)F)c(NC(=O)c3cc(Cl)c(O)c(Cl)n3)s2)cc1 [Example 73] | ≤ 50 | >646 | 175
O=C(Nc1sc(N2CCS(=O)(=O)CC2)nc1C(=O)NCc1ccccc1C(F)(F)F)c1cc(Cl)c(O)c(Cl)n1 [Example 78, 5-(4,6-dichloro-5-hydroxypicolinamido)-2-(1,1-dioxidothiomorpholino)-N-(2-(trifluoromethyl)benzyl)thiazole-4-carboxamide] | 50 to 100 | >180 | 10
O=C(Nc1sc(C2=CCCCC2)nc1C(=O)NCc1ccccc1C(F)(F)F)c1cc(Cl)c(O)c(Cl)n1 [Example 88] | ≤ 50 | – | 53
O=C(Nc1sc(-c2ccccc2Cl)nc1C(=O)NCc1ccccc1C(F)(F)F)c1cc(F)c(O)c(Cl)c1 [Example 89] | ≤ 50 | 688 | –
O=C(Nc1sc(-c2cncc(F)c2)nc1C(=O)NCc1ccccc1C(F)(F)F)c1cc(F)c(O)c(Cl)c1 [Example 90] | ≤ 50 | >797 | 107

Continued, values first:

Ki [1] [nM] | HSD17B14 fold selectivity [2] [fold] | HSD17B2 fold selectivity [3] [fold] | Compound
50 to 100 | 76 | 24 | CS(=O)(=O)c1ccccc1-c1nc(C(=O)NCc2ccccc2C(F)(F)F)c(NC(=O)c2cc(Cl)c(O)c(Cl)c2)s1 [Example 91]
50 to 100 | >215 | 44 | CS(=O)(=O)c1ccccc1-c1nc(C(=O)NCc2ccccc2C(F)(F)F)c(NC(=O)c2cc(Cl)c(O)c(Cl)n2)s1 [Example 92]
≤ 50 | >1250 | 1270 | CN(C)Cc1ccc(F)c(-c2nc(C(=O)NCc3ccccc3C(F)(F)F)c(NC(=O)c3cc(F)c(O)c(Cl)c3)s2)c1 [Example 94]
≤ 50 | >1640 | 2150 | N#Cc1cccc(-c2nc(C(=O)NCc3ccccc3C(F)(F)F)c(NC(=O)c3cc(Cl)c(O)c(Cl)c3)s2)c1 [Example 95]
≤ 50 | >2000 | 985 | N#Cc1cccc(-c2nc(C(=O)NCc3ccccc3C(F)(F)F)c(NC(=O)c3cc(F)c(O)c(Cl)c3)s2)c1 [Example 96]
≤ 50 | 772 | – | CS(=O)(=O)c1cccc(-c2nc(C(=O)NCc3ccccc3C(F)(F)F)c(NC(=O)c3cc(Cl)c(O)c(Cl)c3)s2)c1 [Example 97]
≤ 50 | 928 | – | CS(=O)(=O)c1cccc(-c2nc(C(=O)NCc3ccccc3C(F)(F)F)c(NC(=O)c3cc(Cl)c(O)c(Cl)n3)s2)c1 [Example 98]
≤ 50 | 253 | – | CC(NC(=O)c1nc(-c2ccccc2)sc1NC(=O)c1cc(Cl)c(O)c(Cl)n1)c1ccccc1C(F)(F)F (stereo not drawn) [Example 99]
≤ 50 | >843 | – | O=C(Nc1sc(-c2cnccn2)nc1C(=O)NCc1ccccc1C(F)(F)F)c1cc(Cl)c(O)c(Cl)c1 [Example 100]
≤ 50 | >142 | – | O=C(Nc1sc(-c2cnccn2)nc1C(=O)NCc1ccccc1C(F)(F)F)c1cc(Cl)c(O)c(Cl)n1 [Example 101]
≤ 50 | >1230 | – | CC(NC(=O)c1nc(-c2cccnc2)sc1NC(=O)c1cc(Cl)c(O)c(Cl)c1)c1ccccc1C(F)(F)F (stereo not drawn) [Example 102]
≤ 50 | >1850 | – | CC(NC(=O)c1nc(-c2cccnc2)sc1NC(=O)c1cc(Cl)c(O)c(Cl)n1)c1ccccc1C(F)(F)F (stereo not drawn) [Example 103]
≤ 50 | 357 | 444 | CS(=O)(=O)c1ccc(-c2nc(C(=O)NCc3ccccc3C(F)(F)F)c(NC(=O)c3cc(Cl)c(O)c(Cl)c3)s2)cc1 [Example 104]
